Data set [1] has as its target T1, human recombinant AT2 receptor (Homo sapiens, UniProt P50052).
T1 construct: purchased Eurofins ITEM26
T1 sequence (P50052 1-363): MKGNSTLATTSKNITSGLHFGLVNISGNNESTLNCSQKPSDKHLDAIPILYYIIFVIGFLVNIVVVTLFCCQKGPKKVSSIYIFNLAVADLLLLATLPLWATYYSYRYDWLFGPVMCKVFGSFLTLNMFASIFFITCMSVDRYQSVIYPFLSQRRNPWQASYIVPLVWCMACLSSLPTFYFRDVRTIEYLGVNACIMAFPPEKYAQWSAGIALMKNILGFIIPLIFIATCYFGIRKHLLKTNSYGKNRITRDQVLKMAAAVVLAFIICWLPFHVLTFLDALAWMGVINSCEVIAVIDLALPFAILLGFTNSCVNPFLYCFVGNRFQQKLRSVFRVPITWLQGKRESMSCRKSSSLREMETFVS
The data set is described as follows: Binding to AT2 receptor, radiometric scintillation assay (Eurofins). The following applies: ligand 125I CGP 42112A, tested at 1, 10, 100 and 1000 nM. As to the method:
(§1) Compounds were evaluated for binding to the human recombinant AT2 and AT1 receptor according to Eurofins protocol ITEM26 and ITEM24 using a radiometric scintillation assay.

For data set [2], the target named is T2, human recombinant AT1 receptor (Homo sapiens, UniProt P30556).
T2 construct: purchased Eurofins ITEM24
T2 sequence (P30556 1-359): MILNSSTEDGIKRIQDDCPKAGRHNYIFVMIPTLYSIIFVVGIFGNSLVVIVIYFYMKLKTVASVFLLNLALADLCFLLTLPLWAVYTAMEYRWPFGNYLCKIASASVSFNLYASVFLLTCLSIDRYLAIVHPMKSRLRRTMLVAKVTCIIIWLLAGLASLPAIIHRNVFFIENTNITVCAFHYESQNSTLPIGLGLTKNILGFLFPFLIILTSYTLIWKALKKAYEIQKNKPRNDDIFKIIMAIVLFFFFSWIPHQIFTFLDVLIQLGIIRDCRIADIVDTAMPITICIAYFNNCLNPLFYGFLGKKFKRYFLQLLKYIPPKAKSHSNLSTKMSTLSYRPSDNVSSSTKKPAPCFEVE
Kind of data set: Binding to AT1 receptor, radiometric scintillation assay (Eurofins). The following applies: ligand 125I(sar1,Ile8)-AT-II, tested at 1 and 10 μM. As to the method: as §1

The target in the next data set is T3, CYP1A (Homo sapiens, UniProt P05177).
T3 construct: incubated with human liver microsomes; tissue Eurofins ITEMG232; host or cells: human liver microsomes
T3 sequence (P05177 1-516): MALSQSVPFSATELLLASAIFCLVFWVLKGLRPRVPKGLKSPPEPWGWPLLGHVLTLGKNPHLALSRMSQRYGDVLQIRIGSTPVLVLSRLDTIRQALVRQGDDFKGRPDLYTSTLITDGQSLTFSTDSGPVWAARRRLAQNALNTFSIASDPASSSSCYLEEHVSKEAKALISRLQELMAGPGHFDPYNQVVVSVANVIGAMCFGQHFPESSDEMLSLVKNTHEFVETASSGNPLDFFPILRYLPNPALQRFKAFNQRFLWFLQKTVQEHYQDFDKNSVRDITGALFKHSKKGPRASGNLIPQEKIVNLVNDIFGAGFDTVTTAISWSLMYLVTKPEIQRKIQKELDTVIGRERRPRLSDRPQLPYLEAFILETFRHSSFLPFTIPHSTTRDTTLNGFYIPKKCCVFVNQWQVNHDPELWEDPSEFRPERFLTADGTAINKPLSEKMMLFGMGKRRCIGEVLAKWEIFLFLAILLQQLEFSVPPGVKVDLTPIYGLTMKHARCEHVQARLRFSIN
Kind of data set: CYP inhibition in human liver microsomes, CYP1A. The following applies: probe phenacetin, substrate phenacetin, read-out: CYP1A Inh %. Format: in vitro ADME. As to the method: (§2) The following substrates were used: CYP1A phenacetin, CYP2B6 bupropion, CYP2C8 paclitaxel and amodiaquine, CYP2C9 diclofenac, CYP2C19 omeprazole, CYP2D6 dextromethorphan, CYP3A midazolam and testosterone. At the end of the incubation, the formation of metabolite was monitored by HPLC-MS/MS as the peak area response.

The next data set concerns the target T4, CYP2B6 (Homo sapiens, UniProt P20813).
T4 construct: incubated with human liver microsomes; tissue Eurofins ITEMG232; host or cells: human liver microsomes
T4 sequence (P20813 1-491): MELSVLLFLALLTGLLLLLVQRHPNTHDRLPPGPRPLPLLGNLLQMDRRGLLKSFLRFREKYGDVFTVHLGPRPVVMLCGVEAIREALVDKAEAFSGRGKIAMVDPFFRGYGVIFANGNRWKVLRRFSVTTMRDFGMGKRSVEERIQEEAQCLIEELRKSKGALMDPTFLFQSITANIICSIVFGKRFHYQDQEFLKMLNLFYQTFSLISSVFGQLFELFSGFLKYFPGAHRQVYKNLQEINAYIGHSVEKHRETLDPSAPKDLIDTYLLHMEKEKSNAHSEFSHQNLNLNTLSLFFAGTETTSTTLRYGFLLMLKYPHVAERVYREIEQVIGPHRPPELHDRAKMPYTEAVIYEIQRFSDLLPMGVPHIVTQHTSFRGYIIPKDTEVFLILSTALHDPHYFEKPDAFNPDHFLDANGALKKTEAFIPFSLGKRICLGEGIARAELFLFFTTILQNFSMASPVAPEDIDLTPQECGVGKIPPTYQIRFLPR
The data set is described as follows: CYP inhibition in human liver microsomes, CYP2B6. In kind it is in vitro ADME. The following applies: probe bupropion, substrate bupropion, read-out: CYP2B6 Inh %. As to the method:
as §2

The target in another data set is T5, CYP2C19 (Homo sapiens, UniProt P33261).
T5 construct: incubated with human liver microsomes; tissue Eurofins ITEMG232; host or cells: human liver microsomes
The data set is described as follows: CYP inhibition in human liver microsomes, CYP2C19. In kind it is in vitro ADME. The following applies: substrate omeprazole; for inhibition at 10 µM: probe omeprazole, read-out: CYP2C19 Inh %. As to the method: as §2

Another data set deals with T6, CYP2C8 (Homo sapiens, UniProt P10632).
T6 construct: incubated with human liver microsomes; tissue Eurofins ITEMG232; host or cells: human liver microsomes
T6 sequence (P10632 1-490): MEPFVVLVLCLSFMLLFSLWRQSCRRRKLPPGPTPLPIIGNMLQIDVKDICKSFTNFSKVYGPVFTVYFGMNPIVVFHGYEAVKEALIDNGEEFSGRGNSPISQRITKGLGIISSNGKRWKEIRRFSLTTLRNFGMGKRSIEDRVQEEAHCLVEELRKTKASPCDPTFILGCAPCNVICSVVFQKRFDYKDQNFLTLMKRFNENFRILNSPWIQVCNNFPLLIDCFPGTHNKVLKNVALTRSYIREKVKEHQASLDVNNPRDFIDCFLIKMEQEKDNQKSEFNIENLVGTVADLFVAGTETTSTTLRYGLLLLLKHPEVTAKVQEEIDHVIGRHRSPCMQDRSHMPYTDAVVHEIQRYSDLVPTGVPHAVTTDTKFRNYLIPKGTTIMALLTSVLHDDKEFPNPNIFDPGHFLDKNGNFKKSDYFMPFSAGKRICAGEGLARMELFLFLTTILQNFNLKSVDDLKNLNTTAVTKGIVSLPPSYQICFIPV
Kind of data set: CYP inhibition in human liver microsomes, CYP2C8. The following applies: probe paclitaxel and amodiaquine, substrate paclitaxel and amodiaquine, read-out: CYP2C8 Inh %. In kind it is in vitro ADME. As to the method:
as §2
A general note: Microsomes from liver hold many membrane-bound enzymes, among them those of drug oxidation.

The next data set addresses T7, CYP2D6 (Homo sapiens, UniProt P10635).
T7 construct: incubated with human liver microsomes; tissue Eurofins ITEMG232; host or cells: human liver microsomes
The data set is described as follows: CYP inhibition in human liver microsomes, CYP2D6. Format: in vitro ADME. The following applies: probe dextromethorphan, substrate dextromethorphan, read-out: CYP2D6 Inh %. As to the method: as §2

The subject of a further data set is CYP3A4&5. The data set is described as follows: CYP inhibition in human liver microsomes, CYP3A4&5 (testosterone). In kind it is in vitro ADME. The following applies: probe testosterone, substrate testosterone, read-out: CYP3A4&5 testosterone Inh %. As to the method:
as §2

Data set [3] addresses T8, CYP2C9 (Homo sapiens, UniProt P11712). The data set is described as follows: CYP inhibition in human liver microsomes, CYP2C9. The following applies: substrate diclofenac; for inhibition at 10 µM: probe diclofenac, read-out: CYP2C9 Inh %. In kind it is in vitro ADME. Details: incubated with human liver microsomes; tissue Eurofins ITEMG232; host or cells: human liver microsomes. As to the method: as §2

Data set [4] concerns the target T9, CYP3A4 (Homo sapiens, UniProt P08684). Kind of data set: CYP inhibition in human liver microsomes, CYP3A4 (midazolam). Format: in vitro ADME. Details: incubated with human liver microsomes; tissue Eurofins ITEMG232; host or cells: human liver microsomes. The following applies: probe midazolam, substrate midazolam, read-out: CYP3A4 midazolam Inh %. As to the method: as §2

Data set [5] addresses T8, CYP2C9. Kind of data set: CYP inhibition found during development of C21, CYP 2C9. In kind it is in vitro ADME. The following applies: statement in background.
Data set [6] deals with T9, CYP3A4. The data set is described as follows: CYP inhibition found during development of C21, CYP 3A4. The following applies: statement in background. Format: in vitro ADME.
A short description of data set [7]: Metabolic hydrolysis found during development of C21. In kind it is in vitro ADME. The following applies: statement in background.

T7 sequence (P10635 whole entry): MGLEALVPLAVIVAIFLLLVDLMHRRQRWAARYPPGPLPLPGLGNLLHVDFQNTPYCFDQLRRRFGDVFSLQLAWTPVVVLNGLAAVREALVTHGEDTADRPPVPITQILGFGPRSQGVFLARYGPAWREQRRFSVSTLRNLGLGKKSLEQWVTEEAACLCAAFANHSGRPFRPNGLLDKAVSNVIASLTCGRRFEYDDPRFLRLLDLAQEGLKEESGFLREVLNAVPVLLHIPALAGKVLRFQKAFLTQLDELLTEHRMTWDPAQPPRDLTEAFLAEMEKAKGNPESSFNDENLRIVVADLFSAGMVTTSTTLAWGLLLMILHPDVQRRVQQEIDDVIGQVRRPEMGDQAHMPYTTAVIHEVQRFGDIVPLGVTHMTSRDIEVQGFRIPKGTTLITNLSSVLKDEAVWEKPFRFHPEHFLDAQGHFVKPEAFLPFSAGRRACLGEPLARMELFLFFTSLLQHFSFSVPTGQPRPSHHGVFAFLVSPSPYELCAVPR
T5 sequence (P33261 whole entry): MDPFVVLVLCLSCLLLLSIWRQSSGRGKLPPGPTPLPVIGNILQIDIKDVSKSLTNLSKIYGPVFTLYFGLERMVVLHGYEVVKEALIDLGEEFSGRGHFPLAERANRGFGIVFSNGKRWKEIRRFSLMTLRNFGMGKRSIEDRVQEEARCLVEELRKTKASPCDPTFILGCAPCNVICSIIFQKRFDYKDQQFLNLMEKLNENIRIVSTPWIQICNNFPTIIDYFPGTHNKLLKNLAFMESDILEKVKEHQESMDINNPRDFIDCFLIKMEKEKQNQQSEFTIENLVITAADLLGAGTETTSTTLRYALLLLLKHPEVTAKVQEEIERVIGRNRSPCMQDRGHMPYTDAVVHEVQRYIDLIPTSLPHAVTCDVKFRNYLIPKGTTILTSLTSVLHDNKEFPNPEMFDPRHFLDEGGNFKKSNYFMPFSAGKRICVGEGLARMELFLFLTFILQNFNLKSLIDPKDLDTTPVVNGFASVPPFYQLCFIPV
T9 sequence (P08684 whole entry): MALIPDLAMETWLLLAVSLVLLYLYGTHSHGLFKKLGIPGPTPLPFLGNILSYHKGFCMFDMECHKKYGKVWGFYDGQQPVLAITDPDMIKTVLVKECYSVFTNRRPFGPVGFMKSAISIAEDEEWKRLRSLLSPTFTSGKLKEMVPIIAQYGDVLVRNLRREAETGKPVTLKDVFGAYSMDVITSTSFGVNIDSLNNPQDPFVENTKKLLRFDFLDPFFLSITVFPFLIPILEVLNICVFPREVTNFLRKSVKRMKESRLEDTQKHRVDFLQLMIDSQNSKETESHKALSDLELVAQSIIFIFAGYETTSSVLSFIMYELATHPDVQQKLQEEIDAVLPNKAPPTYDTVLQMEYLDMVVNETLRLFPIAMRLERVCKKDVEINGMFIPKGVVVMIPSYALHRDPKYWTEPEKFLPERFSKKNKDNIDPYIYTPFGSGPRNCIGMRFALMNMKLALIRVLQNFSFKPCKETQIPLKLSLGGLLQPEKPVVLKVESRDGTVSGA
T8 sequence (P11712 whole entry): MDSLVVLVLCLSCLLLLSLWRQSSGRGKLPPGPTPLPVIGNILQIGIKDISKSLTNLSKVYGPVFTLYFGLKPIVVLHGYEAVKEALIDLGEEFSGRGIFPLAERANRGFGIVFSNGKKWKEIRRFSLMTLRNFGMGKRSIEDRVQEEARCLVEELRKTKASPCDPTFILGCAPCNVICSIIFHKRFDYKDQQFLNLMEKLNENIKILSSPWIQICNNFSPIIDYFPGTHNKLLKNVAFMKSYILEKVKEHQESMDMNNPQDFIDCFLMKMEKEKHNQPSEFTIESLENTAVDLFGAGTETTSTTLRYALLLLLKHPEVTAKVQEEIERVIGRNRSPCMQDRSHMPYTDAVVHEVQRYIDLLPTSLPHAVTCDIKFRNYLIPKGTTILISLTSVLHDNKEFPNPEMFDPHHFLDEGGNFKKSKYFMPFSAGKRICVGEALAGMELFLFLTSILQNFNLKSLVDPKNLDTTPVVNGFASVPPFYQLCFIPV

Usually IC50 stands for the concentration at which inhibition is half-maximal. Consider `Cc1cn(Cc2ccc(-c3cc(CC(C)C)sc3S(=O)(=O)NC(=O)NCc3ccccn3)cc2)c(C)n1` [Example 11, 3-(3-{p-[(2,4-Dimethyl-1H-imidazol-1-yl)methyl]phenyl}-5-isobutyl-2-thienylsulfonyl)-1-[(2-pyridyl)methyl]urea], for which the IC50 in [1] was 119 nM; in [2] it was 18 µM. In addition, the inhibition at 10 µM on CYP1A turned out to be 5%; on CYP2B6, 14%; at CYP2C19, 53%; at CYP2C8, 34%; on CYP2D6 it was 44%; in the data set with CYP3A4&5 it was 17%. The inhibition at 10 µM was 29% at CYP2C9 [3] and 22% at CYP3A4 [4].
Consider `Cc1nccn1Cc1ccc(-c2cc(CC(C)C)sc2S(=O)(=O)NC(=O)NCCc2c[nH]cn2)cc1F` [Example 16, 1-(3-{3-Fluoro-4-[(2-methyl-1H-imidazol-1-yl)methyl]phenyl}-5-isobutyl-2-thienylsulfonyl)-3-[2-(1H-imidazol-4-yl)ethyl]urea], for which the IC50 in data set [1] amounted to 7.4 nM; in data set [2], 57 µM. Besides, the inhibition at 10 µM on CYP1A was determined as 23%; on CYP2B6, 88%; at CYP2C19, 91%; at CYP2C8 it was 65%; on CYP2D6, 88%; in the data set with CYP3A4&5 it was 58%. Also, the inhibition at 10 µM was determined as 79% on CYP2C9 [3] and 91% on CYP3A4 [4].
Turning to `Cc1nccn1Cc1ccc(-c2cc(CC(C)C)sc2S(=O)(=O)NC(=O)N(C)Cc2ccccn2)cc1F` [Example 17, 3-(3-{3-Fluoro-4-[(2-methyl-1H-imidazol-1-yl)methyl]phenyl}-5-isobutyl-2-thienylsulfonyl)-1-methyl-1-[(2-pyridyl)methyl]urea], the values for the IC50 in data set [1] and in [2] were 9.5 nM and 58 µM, respectively. Besides, the inhibition at 10 µM at CYP1A is 29%; at CYP2B6, 20%; on CYP2C19 it was 54%; on CYP2C8, 83%; at CYP2D6, 22%; in the data set with CYP3A4&5 it was 18%. In addition, the inhibition at 10 µM at CYP2C9 [3] came out at 48%; at CYP3A4 [4], 65%.
Consider `CCCCOC(=O)NS(=O)(=O)c1sc(CC(C)C)cc1-c1ccc(Cn2ccnc2)cc1` [Example C21, N-butyloxycarbonyl-3-(4-imidazol-1-ylmethylphenyl)-5-isobutylthiophene-2-sulfon-amide], for which the “CYP2C19 Inh %” value at CYP2C19 (10 μM) was found to be 96.0%. Further, the “inhibition of CYP 2C9” value at CYP2C9 [5] was “potent inhibitor”. Moreover, at CYP3A4 [6], the “inhibition of CYP 3A4” value is “potent inhibitor”. Further, the metabolic hydrolysis result in data set [7] was “rapidly hydrolysed to an inactive sulfonamide metabolite”. Further, at CYP2C9 [3] (10 μM), the “CYP2C9 Inh %” value was 99.0%.

The record behind these values is patent US12435072B2, “Compounds” (Vicore Pharma AB, priority 2019, dated 2025).
